In brackets after ≈: the same amount, converted by molar mass.
Columns and labels:
[1] = Kinetic solubility of the compound at pH 1.2; assay type: physicochemical; conditions: buffer, read-out: Kinetic_solubility
[2] = Kinetic solubility of the compound at pH 6.8; assay type: physicochemical; conditions: buffer, read-out: Kinetic_solubility
in vitro [3] = conditions: human, liver microsomes
Description: Metabolic stability in human liver microsomes assessed as compound remaining at 1 uM after 30 mins

in vitro [4] = conditions: rat, liver microsomes
Description: Metabolic stability in rat liver microsomes assessed as compound remaining at 1 uM after 30 mins

[5] = target: T1, Sodium channel protein type 9 subunit alpha (Homo sapiens, UniProt Q15858); test: Inhibition of Nav1.7 (unknown origin) by electrophysiological assay
[6] = target: T1, Sodium channel protein type 9 subunit alpha; test: Inhibition of Nav1.7 (unknown origin) expressed in CHO cells after 45 mins by FLIPR assay; assay type: cell-based

T1 sequence (Q15858 whole entry): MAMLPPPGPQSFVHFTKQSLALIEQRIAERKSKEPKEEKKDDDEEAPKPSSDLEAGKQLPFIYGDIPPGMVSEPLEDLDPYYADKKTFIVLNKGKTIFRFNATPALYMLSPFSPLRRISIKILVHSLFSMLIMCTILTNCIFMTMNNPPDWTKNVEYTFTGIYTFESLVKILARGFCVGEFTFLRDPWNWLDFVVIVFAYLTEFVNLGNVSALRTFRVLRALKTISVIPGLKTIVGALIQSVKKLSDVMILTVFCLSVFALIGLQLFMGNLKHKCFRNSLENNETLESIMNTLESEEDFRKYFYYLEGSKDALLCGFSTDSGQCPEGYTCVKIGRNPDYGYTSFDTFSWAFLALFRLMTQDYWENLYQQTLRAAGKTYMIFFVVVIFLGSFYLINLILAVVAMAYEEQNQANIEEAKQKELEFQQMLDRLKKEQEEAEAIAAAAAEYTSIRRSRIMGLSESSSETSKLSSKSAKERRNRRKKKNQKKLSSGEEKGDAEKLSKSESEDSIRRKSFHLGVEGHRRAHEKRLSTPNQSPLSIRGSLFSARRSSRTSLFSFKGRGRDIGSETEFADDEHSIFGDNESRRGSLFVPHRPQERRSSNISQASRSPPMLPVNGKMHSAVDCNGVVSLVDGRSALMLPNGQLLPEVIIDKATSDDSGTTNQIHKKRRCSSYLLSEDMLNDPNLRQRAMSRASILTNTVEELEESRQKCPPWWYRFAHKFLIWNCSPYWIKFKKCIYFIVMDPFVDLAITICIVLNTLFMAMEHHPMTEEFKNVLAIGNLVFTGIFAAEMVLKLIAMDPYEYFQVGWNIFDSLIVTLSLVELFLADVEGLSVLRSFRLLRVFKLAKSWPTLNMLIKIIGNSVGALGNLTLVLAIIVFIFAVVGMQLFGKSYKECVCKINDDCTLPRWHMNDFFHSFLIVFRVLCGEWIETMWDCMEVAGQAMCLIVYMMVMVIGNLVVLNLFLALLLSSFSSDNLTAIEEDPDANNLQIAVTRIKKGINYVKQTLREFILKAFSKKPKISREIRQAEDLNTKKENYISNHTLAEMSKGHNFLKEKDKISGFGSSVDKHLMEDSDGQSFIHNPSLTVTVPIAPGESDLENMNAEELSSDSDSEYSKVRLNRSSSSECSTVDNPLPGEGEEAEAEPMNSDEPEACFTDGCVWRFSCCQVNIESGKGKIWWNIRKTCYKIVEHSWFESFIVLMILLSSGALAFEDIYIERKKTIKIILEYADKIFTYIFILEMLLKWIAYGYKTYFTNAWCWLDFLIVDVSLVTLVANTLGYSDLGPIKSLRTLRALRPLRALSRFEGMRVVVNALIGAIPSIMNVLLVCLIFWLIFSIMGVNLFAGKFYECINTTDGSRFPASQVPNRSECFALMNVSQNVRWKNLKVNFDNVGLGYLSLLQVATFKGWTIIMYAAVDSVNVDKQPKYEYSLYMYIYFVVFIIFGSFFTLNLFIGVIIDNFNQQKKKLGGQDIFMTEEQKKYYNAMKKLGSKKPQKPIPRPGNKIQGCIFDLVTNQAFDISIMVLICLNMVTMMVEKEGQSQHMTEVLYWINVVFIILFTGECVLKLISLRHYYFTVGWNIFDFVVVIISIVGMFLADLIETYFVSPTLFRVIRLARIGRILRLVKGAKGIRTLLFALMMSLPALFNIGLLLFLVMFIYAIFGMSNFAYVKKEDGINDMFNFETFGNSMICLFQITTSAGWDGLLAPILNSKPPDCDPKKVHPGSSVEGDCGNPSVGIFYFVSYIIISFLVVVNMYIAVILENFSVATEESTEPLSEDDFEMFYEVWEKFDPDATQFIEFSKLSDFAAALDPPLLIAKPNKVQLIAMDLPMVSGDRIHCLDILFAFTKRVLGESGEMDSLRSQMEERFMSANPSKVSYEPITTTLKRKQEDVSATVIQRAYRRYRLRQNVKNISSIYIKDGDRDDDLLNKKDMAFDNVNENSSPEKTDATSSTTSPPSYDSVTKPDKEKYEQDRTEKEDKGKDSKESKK

solubility kinetic [1] [µM]	solubility kinetic [2] [µM]	remaining at 0.5 h, 1 µM (in vitro [3]) [%]	remaining at 0.5 h, 1 µM (in vitro [4]) [%]	Ki [5] [nM]	IC50 [6] [nM]	SMILES
12 (≈ 4.7 µg/mL)	7 (≈ 2.74 µg/mL)					CC(=O)N1c2ccc(Cl)cc2CCc2cc(-c3cccc(C(N)=O)n3)ccc21
60 (≈ 24.9 µg/mL)	0.1 (≈ 0.0414 µg/mL)	79	72			CN1c2ccc(-c3cccc([C@H](O)CO)n3)cc2CCc2cc(C(F)(F)F)ccc21
70 (≈ 32.2 µg/mL)	0.8 (≈ 0.368 µg/mL)	94	93	920		CN1Cc2cc(-c3cccc([C@H](O)[C@@H](O)C(N)=O)n3)ccc2Oc2ccc(C(F)(F)F)cc21
0.2 (≈ 0.0756 µg/mL)					> 10000	CCN1c2ccc(Cl)cc2CCc2cc(-c3cccc(C(N)=O)n3)ccc21
0.2 (≈ 0.07 µg/mL)						NC(=O)c1cccc(-c2ccc3c(c2)CCc2cc(Cl)ccc2N3)n1

More lines, now with the values behind:

SMILES	solubility kinetic [1] [µM]	solubility kinetic [2] [µM]	remaining at 0.5 h, 1 µM (in vitro [3]) [%]	remaining at 0.5 h, 1 µM (in vitro [4]) [%]	Ki [5] [nM]	IC50 [6] [nM]
NC(=O)N1c2ccccc2C=Cc2ccccc21 [CARBAMAZEPINE]	75 (≈ 17.7 µg/mL)	74 (≈ 17.5 µg/mL)	38	37		
CN1Cc2cc(C(F)(F)F)ccc2Oc2ccc(-c3cccc([C@H](O)CO)n3)cc21	73 (≈ 30.4 µg/mL)	6 (≈ 2.5 µg/mL)	91	74	560	
OC[C@@H](O)c1cccc(-c2ccc3c(c2)CNc2cc(C(F)(F)F)ccc2O3)n1	80 (≈ 32.2 µg/mL)	12 (≈ 4.83 µg/mL)				
CN1Cc2cc(-c3cccc([C@H](O)CO)n3)ccc2Oc2ccc(C(F)(F)F)cc21	70 (≈ 29.1 µg/mL)	0.4 (≈ 0.167 µg/mL)	98	94	440	
NC(=O)CN1Cc2cc(-c3cccc([C@H](O)CO)n3)ccc2Oc2ccc(C(F)(F)F)cc21	80 (≈ 36.8 µg/mL)	1 (≈ 0.459 µg/mL)	83	91		1800

Source: ChEMBL document CHEMBL3580627, “Dibenzazepines and dibenzoxazepines as sodium channel blockers” (Bioorg Med Chem Lett, 2014)
